Results reported in ChEMBL document CHEMBL3045223, “Synthesis, nematicidal and antimicrobial properties of Bis-[4-methoxy-3-[3-(4-fluorophenyl)-6-(4-methylphenyl)-2(aryl)-tetrahydro-2H-pyrazolo[3,4-d]thiazol-5-yl]phenyl]methanes” (2009).
Values after ≈ are worked out from the molar mass of the structure shown. Active and inactive are the calls of the source. The rule behind the calls is not given here.

What follows are compounds tested on Klebsiella aerogenes (assay: Antibacterial activity against Enterobacter aerogenes MTCC 39 assessed as inhibition zones at 300 ug/disk at 37 degC for 24 hr). Conditions: MTCC 39, 24 h, read-out: IZ.
Assay type: functional

Compound | zone of inhibition at 300 µg/disc [mm]
COc1ccc(Cc2ccc(OC)c(C3SC4C(=NN(C(C)C)C4c4ccc(F)cc4)N3c3ccc(C)cc3)c2)cc1C1SC2C(=NN(C(C)C)C2c2ccc(F)cc2)N1c1ccc(C)cc1 (configuration not stated) | 19

These compounds were tested on Trichophyton mentagrophytes (assay: Antifungal activity against Trichophyton mentagrophytes IFO 40996 assessed as growth inhibition at 37 degC for 48 hr). Conditions: not given.
Assay type: functional

Compound | MBC | MIC
COc1ccc(Cc2ccc(OC)c(C3SC4C(=NN(C(C)C)C4c4ccc(F)cc4)N3c3ccc(C)cc3)c2)cc1C1SC2C(=NN(C(C)C)C2c2ccc(F)cc2)N1c1ccc(C)cc1 (configuration not stated) | inactive | inactive

What follows are compounds tested on Pseudomonas aeruginosa (assay: Antibacterial activity against Pseudomonas aeruginosa MTCC 741 assessed as inhibition zones at 300 ug/disk at 37 degC for 24 hr). Conditions: MTCC 741, 24 h, read-out: IZ.
Assay type: functional

Compound | zone of inhibition at 300 µg/disc [mm]
COc1ccc(Cc2ccc(OC)c(C3SC4C(=NN(C(C)C)C4c4ccc(F)cc4)N3c3ccc(C)cc3)c2)cc1C1SC2C(=NN(C(C)C)C2c2ccc(F)cc2)N1c1ccc(C)cc1 (configuration not stated) | 23

Each compound was assayed on Trichophyton rubrum (assay: Antifungal activity against Trichophyton rubrum IFO 9185 assessed as growth inhibition at 300 ug/disk at 37 degC for 48 hr). Conditions: not given.
Assay type: functional

Compound | inhibition zone (IZ)
COc1ccc(Cc2ccc(OC)c(C3SC4C(=NN(C(C)C)C4c4ccc(F)cc4)N3c3ccc(C)cc3)c2)cc1C1SC2C(=NN(C(C)C)C2c2ccc(F)cc2)N1c1ccc(C)cc1 (configuration not stated) | inactive

The compounds below were run on Lysinibacillus sphaericus (assay: Antibacterial activity against Lysinibacillus sphaericus MTCC 11 assessed as growth arrest at 37 degC for 24 hr). Conditions: MTCC 11, 24 h.
Assay type: functional

Compound | MBC [µg/mL] | MIC [µg/mL]
COc1ccc(Cc2ccc(OC)c(C3SC4C(=NN(C(C)C)C4c4ccc(F)cc4)N3c3ccc(C)cc3)c2)cc1C1SC2C(=NN(C(C)C)C2c2ccc(F)cc2)N1c1ccc(C)cc1 (configuration not stated) | 50 (≈ 53.5 µM) | 50 (≈ 53.5 µM)

Each compound was assayed on Chromobacterium violaceum (assay: Antibacterial activity against Chromobacterium violaceum MTCC 2656 assessed as inhibition zones at 300 ug/disk at 37 degC for 24 hr). Conditions: MTCC 2656, 24 h, read-out: IZ.
Assay type: functional

Compound | zone of inhibition at 300 µg/disc [mm]
COc1ccc(Cc2ccc(OC)c(C3SC4C(=NN(C(C)C)C4c4ccc(F)cc4)N3c3ccc(C)cc3)c2)cc1C1SC2C(=NN(C(C)C)C2c2ccc(F)cc2)N1c1ccc(C)cc1 (configuration not stated) | 16

Each compound was assayed on Pseudomonas aeruginosa (assay: Antibacterial activity against Pseudomonas aeruginosa MTCC 741 assessed as growth arrest at 37 degC for 24 hr). Conditions: MTCC 741, 24 h.
Assay type: functional

Compound | MBC [µg/mL] | MIC [µg/mL]
COc1ccc(Cc2ccc(OC)c(C3SC4C(=NN(C(C)C)C4c4ccc(F)cc4)N3c3ccc(C)cc3)c2)cc1C1SC2C(=NN(C(C)C)C2c2ccc(F)cc2)N1c1ccc(C)cc1 (configuration not stated) | 12.5 (≈ 13.4 µM) | 6.25 (≈ 6.68 µM)

Each compound was assayed on Candida albicans (assay: Antifungal activity against Candida albicans ATCC 10231 assessed as growth inhibition at 37 degC for 48 hr). Conditions: ATCC 10231, 48 h.
Assay type: functional

Compound | MBC [µg/mL] | MIC [µg/mL]
COc1ccc(Cc2ccc(OC)c(C3SC4C(=NN(C(C)C)C4c4ccc(F)cc4)N3c3ccc(C)cc3)c2)cc1C1SC2C(=NN(C(C)C)C2c2ccc(F)cc2)N1c1ccc(C)cc1 (configuration not stated) | 25 (≈ 26.7 µM) | 12.5 (≈ 13.4 µM)

These compounds were tested on Bacillus subtilis (assay: Antibacterial activity against Bacillus subtilis MTCC 441 assessed as inhibition zones at 300 ug/disk at 37 degC for 24 hr). Conditions: MTCC 441, 24 h, read-out: IZ.
Assay type: functional

Compound | zone of inhibition at 300 µg/disc [mm]
COc1ccc(Cc2ccc(OC)c(C3SC4C(=NN(C(C)C)C4c4ccc(F)cc4)N3c3ccc(C)cc3)c2)cc1C1SC2C(=NN(C(C)C)C2c2ccc(F)cc2)N1c1ccc(C)cc1 (configuration not stated) | 13

What follows are compounds tested on Candida albicans (assay: Antifungal activity against Candida albicans ATCC 10231 assessed as growth inhibition at 300 ug/disk at 37 degC for 48 hr). Conditions: not given.
Assay type: functional

Compound | inhibition zone (IZ)
COc1ccc(Cc2ccc(OC)c(C3SC4C(=NN(C(C)C)C4c4ccc(F)cc4)N3c3ccc(C)cc3)c2)cc1C1SC2C(=NN(C(C)C)C2c2ccc(F)cc2)N1c1ccc(C)cc1 (configuration not stated) | inactive

These compounds were tested on Trichophyton rubrum (assay: Antifungal activity against Trichophyton rubrum IFO 9185 assessed as growth inhibition at 37 degC for 48 hr). Conditions: not given.
Assay type: functional

Compound | MBC | MIC
COc1ccc(Cc2ccc(OC)c(C3SC4C(=NN(C(C)C)C4c4ccc(F)cc4)N3c3ccc(C)cc3)c2)cc1C1SC2C(=NN(C(C)C)C2c2ccc(F)cc2)N1c1ccc(C)cc1 (configuration not stated) | inactive | inactive

Each compound was assayed on Staphylococcus aureus (assay: Antibacterial activity against Staphylococcus aureus MTCC 96 assessed as growth arrest at 37 degC for 24 hr). Conditions: MTCC 96, 24 h.
Assay type: functional

Compound | MBC [µg/mL] | MIC [µg/mL]
COc1ccc(Cc2ccc(OC)c(C3SC4C(=NN(C(C)C)C4c4ccc(F)cc4)N3c3ccc(C)cc3)c2)cc1C1SC2C(=NN(C(C)C)C2c2ccc(F)cc2)N1c1ccc(C)cc1 (configuration not stated) | 50 (≈ 53.5 µM) | 25 (≈ 26.7 µM)

The compounds below were run on Aspergillus fumigatus (assay: Antifungal activity against Aspergillus fumigatus HIC 6094 assessed as growth inhibition at 37 degC for 48 hr). Conditions: not given.
Assay type: functional

Compound | MBC | MIC
COc1ccc(Cc2ccc(OC)c(C3SC4C(=NN(C(C)C)C4c4ccc(F)cc4)N3c3ccc(C)cc3)c2)cc1C1SC2C(=NN(C(C)C)C2c2ccc(F)cc2)N1c1ccc(C)cc1 (configuration not stated) | inactive | inactive

The compounds below were run on Lysinibacillus sphaericus (assay: Antibacterial activity against Lysinibacillus sphaericus MTCC 11 assessed as inhibition zones at 300 ug/disk at 37 degC for 24 hr). Conditions: MTCC 11, 24 h, read-out: IZ.
Assay type: functional

Compound | zone of inhibition at 300 µg/disc [mm]
COc1ccc(Cc2ccc(OC)c(C3SC4C(=NN(C(C)C)C4c4ccc(F)cc4)N3c3ccc(C)cc3)c2)cc1C1SC2C(=NN(C(C)C)C2c2ccc(F)cc2)N1c1ccc(C)cc1 (configuration not stated) | 13

What follows are compounds tested on Klebsiella aerogenes (assay: Antibacterial activity against Enterobacter aerogenes MTCC 39 assessed as growth arrest at 37 degC for 24 hr). Conditions: MTCC 39, 24 h.
Assay type: functional

Compound | MBC [µg/mL] | MIC [µg/mL]
COc1ccc(Cc2ccc(OC)c(C3SC4C(=NN(C(C)C)C4c4ccc(F)cc4)N3c3ccc(C)cc3)c2)cc1C1SC2C(=NN(C(C)C)C2c2ccc(F)cc2)N1c1ccc(C)cc1 (configuration not stated) | 12.5 (≈ 13.4 µM) | 12.5 (≈ 13.4 µM)

Each compound was assayed on Trichophyton mentagrophytes (assay: Antifungal activity against Trichophyton mentagrophytes IFO 40996 assessed as growth inhibition at 300 ug/disc at 37 degC for 48 hr). Conditions: not given.
Assay type: functional

Compound | inhibition zone (IZ)
COc1ccc(Cc2ccc(OC)c(C3SC4C(=NN(C(C)C)C4c4ccc(F)cc4)N3c3ccc(C)cc3)c2)cc1C1SC2C(=NN(C(C)C)C2c2ccc(F)cc2)N1c1ccc(C)cc1 (configuration not stated) | inactive

The compounds below were run on Aspergillus fumigatus (assay: Antifungal activity against Aspergillus fumigatus HIC 6094 assessed as growth inhibition at 300 ug/disc at 37 degC for 48 hr). Conditions: HIC 6094, 48 h, read-out: IZ.
Assay type: functional

Compound | zone of inhibition at 300 µg/disc [mm]
COc1ccc(Cc2ccc(OC)c(C3SC4C(=NN(C(C)C)C4c4ccc(F)cc4)N3c3ccc(C)cc3)c2)cc1C1SC2C(=NN(C(C)C)C2c2ccc(F)cc2)N1c1ccc(C)cc1 (configuration not stated) | 13

What follows are compounds tested on Staphylococcus aureus (assay: Antibacterial activity against Staphylococcus aureus MTCC 96 assessed as inhibition zones at 300 ug/disc at 37 degC for 24 hr). Conditions: MTCC 96, 24 h, read-out: IZ.
Assay type: functional

Compound | zone of inhibition at 300 µg/disc [mm]
COc1ccc(Cc2ccc(OC)c(C3SC4C(=NN(C(C)C)C4c4ccc(F)cc4)N3c3ccc(C)cc3)c2)cc1C1SC2C(=NN(C(C)C)C2c2ccc(F)cc2)N1c1ccc(C)cc1 (configuration not stated) | 23

Each compound was assayed on Bacillus subtilis (assay: Antibacterial activity against Bacillus subtilis MTCC 441 assessed as growth arrest at 37 degC for 24 hr). Conditions: MTCC 441, 24 h.
Assay type: functional

Compound | MBC [µg/mL] | MIC [µg/mL]
COc1ccc(Cc2ccc(OC)c(C3SC4C(=NN(C(C)C)C4c4ccc(F)cc4)N3c3ccc(C)cc3)c2)cc1C1SC2C(=NN(C(C)C)C2c2ccc(F)cc2)N1c1ccc(C)cc1 (configuration not stated) | 50 (≈ 53.5 µM) | 25 (≈ 26.7 µM)

Each compound was assayed on Caenorhabditis elegans (assay: Nematicidal activity against Caenorhabditis elegans assessed as immobility). Conditions: read-out: LD50 (the source's name).
Assay type: functional

Compound | LC50 [µg/mL]
COc1ccc(Cc2ccc(OC)c(C3SC4C(=NN(C(C)C)C4c4ccc(F)cc4)N3c3ccc(C)cc3)c2)cc1C1SC2C(=NN(C(C)C)C2c2ccc(F)cc2)N1c1ccc(C)cc1 (configuration not stated) | 600 (≈ 642 µM)

Each compound was assayed on Chromobacterium violaceum (assay: Antibacterial activity against Chromobacterium violaceum MTCC 2656 assessed as growth arrest at 37 degC for 24 hr). Conditions: MTCC 2656, 24 h.
Assay type: functional

Compound | MBC [µg/mL] | MIC [µg/mL]
COc1ccc(Cc2ccc(OC)c(C3SC4C(=NN(C(C)C)C4c4ccc(F)cc4)N3c3ccc(C)cc3)c2)cc1C1SC2C(=NN(C(C)C)C2c2ccc(F)cc2)N1c1ccc(C)cc1 (configuration not stated) | 25 (≈ 26.7 µM) | 25 (≈ 26.7 µM)

What follows are compounds tested on Ditylenchus myceliophagus (assay: Nematicidal activity against Ditylenchus myceliophagus assessed as immobility). Conditions: read-out: LD50 (the source's name).
Assay type: functional

Compound | LC50 [µg/mL]
COc1ccc(Cc2ccc(OC)c(C3SC4C(=NN(C(C)C)C4c4ccc(F)cc4)N3c3ccc(C)cc3)c2)cc1C1SC2C(=NN(C(C)C)C2c2ccc(F)cc2)N1c1ccc(C)cc1 (configuration not stated) | 550 (≈ 588 µM)
